Consider five compounds from patent US10815208B2, “Method for preparing 2-hydroxyl-4-(2, 3-disubstituted benzyloxy)-5-substituted benzaldehyde derivative” (Institute of Materia Medica, Chinese Academy of Medical …, priority 2016, dated 2020).

The target of one test is PD-1/PD-L1 (Homo sapiens (Human), UniProt Q9NZQ7). Description: Cisbio HTRF binding assay, PD-1/PD-L1 small molecule inhibitor screening. The settings on record: for IC50: HTRF, PD-1 (HIS tag) / PD-L1 (hFc tag), 8-10 concentrations. An excerpt: In vitro activity evaluation: Cisbio HTRF binding assay kit was applied for the detection method of in vitro enzymology level.
Screening Principles and Methods of PD-1/PD-L1 Small Molecule Inhibitors
1) Principle: PD-1 protein is with HIS tag, and PD-1 ligand PD-L1 is with hFc tag. Eu labeled anti-hFc antibody and XL665 labeled anti-HIS antibody are combined with the above two label proteins respectively. After laser excitation, energy can be transferred from donor Eu to receptor XL665, allowing XL665 to glow.
2) Experimental method: Reagents should be dispensed in the following order. For 384-well white ELISA plate, 2 μl of diluent or target compound diluted with diluent was added to each well, and then 4 μl of PD-1 protein and 4 μl of PD-L1 protein were added per well, incubated for 15 min at the room temperature; and 10 μl of anti-Tag1-Eu3^+ and anti-Tag2-XL665 was added per well and incubated for 1 h at the room temperature and the fluorescence signals at 665 nm and 620 nm were measured. HTRF rate=(665 nm/620 nm)*10^4. 8-10 concentrations were detected for each compound and IC50 was calculated by Graphpad software.

In test [1] the test system is advanced triple-negative breast cancer. The settings on record: in vivo; cited from earlier work.
The subject of test [2] is advanced Hodgkin's lymphoma (HL). The settings on record: advanced HL patients with no treatment response to any of the approved drugs; cited from earlier work.
The subject of test [3] is pleural mesothelioma (PM). Particulars: 25 patients with pleural mesothelioma (PM); cited from earlier work.

Chain of PD-1/PD-L1 (Q9NZQ7 19-238): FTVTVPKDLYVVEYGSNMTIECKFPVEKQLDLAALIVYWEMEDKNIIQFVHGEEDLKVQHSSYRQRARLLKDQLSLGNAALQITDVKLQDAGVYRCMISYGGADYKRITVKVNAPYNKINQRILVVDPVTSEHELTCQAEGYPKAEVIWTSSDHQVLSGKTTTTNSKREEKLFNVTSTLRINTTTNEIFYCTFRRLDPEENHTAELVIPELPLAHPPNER

Broadly, the IC50 is the concentration at which inhibition is half-maximal. In the case of `CC(=O)NCCNCc1cc(Cl)c(OCc2cccc(-c3ccccc3)c2Br)cc1OCc1cccc(C#N)c1` [Example 2, N-acetylaminoethyl-4-(2-bromo-3-phenylbenzyloxy)-2-(3-cyanobenzyloxy)-5-chlorobenzylamine], at PD-1/PD-L1, the “inhibition of the interaction between PD-1 and PD-L1” value is reported as “significantly inhibit”; the IC50 stood at 62.3 nM.

“(R)—N-[2-(5-cyanopyridine-3-methyleneoxy)-4-(2-methyl-3-(2,3-dihydrobenzo[b][1,4]dioxin-6-yl)benzyloxy)-5-chlorobenzyl]-3-(pyridin-3-yl)alanine [Example 6]”: at PD-1/PD-L1, the “inhibition of the interaction between PD-1 and PD-L1” value is reported as “significantly inhibit”; the IC50 is 35 nM.

As for “MPDL3280A: Roche's PD-L1 monoclonal antibody”, in test [1], the “effect in advanced triple-negative breast cancer” value is on record as “long-lasting effect”.

Turning to nivolumab [Opdvio], the treatment response entry in test [2] was “complete remission”.

Regarding pembrolizumab [Keytruda], in test [3], the disease control rate is listed as 76% and the “overall response rate (ORR)” value was 28%. Besides, the treatment response result in test [2] is given as “complete remission”.
